Laboratory results: the NIST ThermoML archive (doi:10.1016/j.jct.2011.10.002)
Numbers after ± are expanded uncertainties.

Conditions: 298.15 K, 101.33 kPa, Liquid; for speed of sound: Sing-around technique in a fixed-path interferometer; for mass density: Vibrating tube method

Row | Compound | speed of sound [m/s] | mass density [kg/m3]
1 | Cc1ccccn1 [2-methylpyridine] | 1380.1 ± 2.1 | 939.802 ± 0.77
2 | Cc1cccnc1 [3-methylpyridine] | 1424 ± 1.2 | 952.002 ± 0.23
3 | Cc1ccccc1N [2-methylaniline] | 1602.6 ± 1.3 | 994.351 ± 0.23

Second part, the compound after the results:

Row | speed of sound [m/s] | mass density [kg/m3] | Compound
4 | 1269.9 ± 2.1 | 879.136 ± 0.7 | C1CCOCC1 [tetrahydropyran]
5 | 1431.5 ± 1.2 | 950.179 ± 0.23 | Cc1ccncc1 [4-methylpyridine]
